Values quoted from earlier work in patent US20220175673A1, “SURGICAL DEVICE” (Saint Anthony Biomedical, LLC, priority 2017, published 2022).

What was measured:
[1] = system: MDR isolates (MRSA, E. faecium, K pneumoniae, E. aerogenes, E. coli and A. baumani); details: 0.05% CHG, 1-minute exposure
[2] = system: Enterococcus, including E. faecalis and E. faecium; details: vancomycin-susceptible and vancomycin-resistant strains
[3] = system: Staphylococcus aureus, S. epidermidis, S. haemolyticus, S. hominis, S. simulans; details: both oxacillin-resistant and oxacillin-susceptible staphylococci
[4] = system: Epidermophyton occosum, Microsporum gypseum, M canis, Trichophyton mentagrophytes
Veillonella = details: compared with other anaerobic bacteria
[5] = system: Streptococcus mutans, S. pyogenes, S. salivarius, S. sanguis; details: Gram-positive aerobic bacteria
[6] = system: CMV, HIV, HSV-1, HSV-2, influenza virus, parainfluenza virus, variola virus; details: viruses with a lipid component in outer coat or an outer envelope
[7] = system: Candida albicans, C. dubliniensis, C. glabrata, C. gullermondii, C. pseudotropicalis, C. krusei, C. lusitaniae, C. tropicalis

Compound | log-reduction in MDR isolates [1] | effect on wound healing (wound healing) | activity [2] | activity [3] | activity [4] | activity (Veillonella) | activity [5] | antiviral activity [6] | effect on keratinocytes (keratinocytes) | activity [7]
N=C(NCCCCCCNC(=N)NC(=N)Nc1ccc(Cl)cc1)NC(=N)Nc1ccc(Cl)cc1.O=C(O)[C@H](O)[C@@H](O)[C@H](O)[C@H](O)CO.O=C(O)[C@H](O)[C@@H](O)[C@H](O)[C@H](O)CO [CHG, chlorhexidine gluconate] | greater than or equal to 99.99% |  |  |  |  |  |  |  |  | 
[H]/N=C(\N/C(=N/[H])NCCCCCCNC(=N)NC(=N)Nc1ccc(Cl)cc1)Nc1ccc(Cl)cc1 [Chlorhexidine, chlorhexidine] |  | inhibitory effect | active | active | some activity | less active | highly active | appears to have antiviral activity | cytotoxic effect | some activity
